These results are taken from patent US20020076402A1, “Enzyme-based fungicidal composition” (Universite Pierre et Marie Curie, priority 1998, published 2002).

Test [1] concerns corn. The test can be described thus: Pelliculisation of corn: degree of germination. The format is in vivo. Here is the method: When the test is applied to pelliculised grains or seeds, the degree of germination is determined by the number of grains germinated over the total number of grains, and compared with those of non pelliculised batches, or grains that are pelliculised grains in the absence of enzymes and/or their substrate.
Chitinases alone: quantity used to pelliculise 3 to 4 g of corn naturally contaminated with the phytopathogenic fungi Fusarium nivale and Fusarium roseum: 100 mg of CNase was mixed with 3.4 ml of a suspension of Sepiret 7017 Argent composed of 3.6 g of the commercial suspension and 10 ml of water.
Laminarinases alone: quantity used to pelliculise 2 g of contaminated corn: 40 mg of freeze-dried LMase with a filter of 17 units/mg were mixed with 2 ml of a suspension of Sepiret 7017 Argent composed of 3 g of the commercial suspension and 5 ml of water.
Lysozyme alone: quantity used to pelliculise 2 g of contaminated corn: 100 mg of LZ was mixed with 2 ml of a suspension of Sepiret 7017 Argent composed of 5 g of the commercial suspension and 7.1 ml of water.
(§1) Germination inhibition test: The pelliculised grains were placed in Petri dishes containing the growth medium. On the fifth day, the degree of contamination (number of contaminated grains/total number of grains) and degree of germination (number of germinated grains/total number of grains) were determined and compared with those of batches pelliculised with Sepiret 01G alone.
(§2) Formulation: An aqueous suspension of Sepiret 7017 Argent composed of 7 g of commercial slip and 10 ml of water was used. 100 mg of the substances shown below was mixed with 2 ml of the above suspension and this mixture was used to pelliculise batches of 2 g of corn. This latter originated from a culture naturally contaminated with Fusarium nivale and Fusarium roseum: […]
(§3) Mixtures tested: (quantities used to pelliculise 2 g of corn: […]

Test [2] deals with Fusarium nivale and Fusarium roseum. Briefly: Pelliculisation of corn: degree of contamination by Fusarium sp. In kind it is in vivo. Here is the method: as §1, §2, §3
Setting [3] is: Example 4, 100 mg substance in 2 ml Sepiret 7017 Argent suspension per 2 g corn, day five.
Setting [4] is: Example 3 mono-enzymatic mixtures in Sepiret 7017 Argent, fifth day.

For `CC(=O)N[C@H]1C(O)O[C@H](CO)[C@@H](O)[C@@H]1O` (stereo partly shown) [NAG, N-acetylglucosamine, reference compound], the Germination in test [1] (setting [3]) was 65%. Further, the Contamination in test [2] (setting [3]) worked out at 70%. Moreover, in test [2] (Example 4, vs reference), the “effect on degree of contamination (in words)” value is on record as “no effect”.

For lysozyme hydrochloride [LZ], the “relative variation of degree of germination” value in test [1] (Example 3, vs own control) is given as “+20%”. Besides, in test [1] (setting [4]), the Degree of germination worked out at 85%. In test [2] (Example 3, enzyme alone), the “inhibition of Fusarium sp. fungi (in words)” value is on record as “no effect”. Besides, in test [2] (setting [4]), the Degree of contamination was determined as 65%.
